The values that follow come from patent US12234258B2, “Timosaponin compounds” (priority 2012, dated 2025).

Where two headings read alike, the source gives them in different places.

Data set [1] concerns the target T1, BACE activity in cell lysates (Mus musculus, UniProt P56818).
T1 construct: endogenous in cells; host or cells: N2A-APPswe (Neuro-2A cells expressing Swedish mutant APP)
As to the kind of experiment: BACE (β-secretase) activity in cell lysates. Type of data set: biochemical. The note with it: cells treated with compound. On the procedure:
(§1) β-Secretase assays: Confluent N2A-APPswe cells were harvested and homogenized with 50 mM MES, pH 5.5. Protein extracts (10 μg) were incubated with TAIII for 1 hr at room temperature. The β-secretase activities were assayed by adding 10 μM fluorogenic β-secretase substrate (Millipore) to the reaction mixtures and fluorescence signals (excitation, 380 nm; emission, 460 nm) were measured. β-Secretase assays were also performed using purified BACE1 (Millipore) at 100 ng in a buffer of 50 mM MES, pH 5.5.

For the next data set, the system named is Neuro-2A cells. Nature of the data set: Neurite outgrowth of N2A cells. The data set is classed as cell-based.
Data set [2] deals with HeLa, human cervical carcinoma cells. Nature of the data set: Growth of cancer cell lines: HeLa. Type of data set: cell-based. The conditions noted are these: mean ± S.D., n = 3; read-out: IC50 against growth of HeLa.
The subject of data set [3] is SW480, human colon adenocarcinoma cells. As to the kind of experiment: Growth of cancer cell lines: SW480. The data set is classed as cell-based. The note with it: mean ± S.D., n = 3; read-out: IC50 against growth of SW480.
The subject of data set [4] is Aβ1-42 production in SweAPP N2A cells (N2A-APPswe). As to the kind of experiment: Aβ1-42 ELISA of conditioned medium of SweAPP N2A cells. The data set is classed as cell-based.
Method: Neuro-2A cells expressing Swedish mutants of (“SweAPP N2A cells”) was cultured in minimal essential medium with glutamine (2 mM), pyruvate (2 mM) and fetal bovine serum (10%). Cells were seeded at 6-well plate at 1×10^6 cells/mL and grown overnight. The medium was replaced.
Conditioned medium was diluted with 2 part volume of ELISA diluents. Aβ1-42 concentrations were determined by using human Aβ1-42 ultrasensitive ELISA kit (manufactured by Invitrogen).
The test system of data set [5] is HepG2, human hepatoma cells. Nature of the data set: Growth of cancer cell lines: HepG2. The data set is classed as cell-based. The note with it: mean ± S.D., n = 3; read-out: IC50 against growth of HepG2.
The test system of data set [6] is Aβ42, Aβ40 and Aβ38 in N2A-APPswe cells. Nature of the data set: Aβ42, Aβ40 and Aβ38 profiles in conditioned medium by ELISA. The data set is classed as cell-based. The conditions noted are these: FIG. 18, 18 hr. On the procedure:
Aβ ELISA: Aβ concentrations in conditioned medium were assayed using ELISA kits for human Aβ40, human Aβ42 (ultrasensitive) (Invitrogen) and Aβ38 (MyBioSource).
Cells were treated with various concentrations of (TAIII/TAI/AA/TAV) and DMSO vehicle (C) for 18 hr. In part A of FIG. 18, the expression of full length (FL) and CTF (c99 and c83) in cell lysates and secreted APP (sAPPα and sAPPP) in the conditioned medium were examined by immunoblot using methods specified in Example 6. In part B of FIG. 18, the profiles of Aβ42, Aβ40 and Aβ38 in the conditioned medium were determined by ELISA using methods specified in Example 5.
(An ELISA detects its analyte on a solid surface through an enzyme-linked reagent.)

The subject of data set [7] is APP processing (FL APP, β-CTF, secreted Aβ) in SweAPP N2A cells. As to the kind of experiment: Immunoblot analysis of APP processing in SweAPP N2A cells. The data set is classed as cell-based. The conditions noted are these: treated SweAPP N2A cells. As for the experimental part: Cells obtained from Example 5 were washed with phosphate buffered saline and lysed with buffer containing Tris-Cl (50 mM, pH 7.4), NaCl ([…]), TRITON™ X-100 (1%) supplemented with protease inhibitors. Equal amount of proteins (30 μg) was resolved by 16.5% Tris-tricine gels and then transferred to nitrocellulose membrane with 0.2 µm pore size. For detection of secreted Aβ, 50 μL of the conditioned medium was mixed with sodium dodecyl sulfate (“SDS”) sample buffer and resolved accordingly. The membrane was blocked with Tris-buffered saline containing TWEEN™20 (0.1%) and bovine serum albumin (“BSA”) (3%) and then incubated with primary antibodies at 4° C. overnight, followed with appropriate secondary antibodies for 2 hours. The primary antibodies used included rabbit APP c-terminal antibody with 1:5000 dilution (obtained from Merck Bioscience) for detection of full length (“FL”) and CTFs, and mouse monoclonal 6E10 (obtained from Covance) for detection of secreted Aβ. The immunoreactivities were detected using enhanced chemiluminescence reagents (manufactured by GE Health care).
Immunoblot analysis: Cells were washed with phosphate buffered saline and lysed with buffer containing 50 mM Tris-Cl, pH 7.4, 150 mM NaCl, 1% Triton X-100 supplemented with protease inhibitors. Equal amount of proteins (30 μg) was resolved by 16.5% Tris-tricine gels and then transferred to nitrocellulose membrane with 0.2 µm pore size. For detection of secreted Aβ, sAPPα and sAPPβ, cells were treated with the timosaponins for 8 hr in complete medium which were then replaced with medium containing 0.1% FBS. After further incubation of 16 hr, 50 μL of the conditioned medium was mixed with SDS sample buffer and resolved accordingly. The membrane was blocked with Tris-buffered saline containing 0.1% TWEEN® 20 and 3% BSA and then incubated with primary antibodies at 4° C. overnight, followed with appropriate secondary antibodies for 2 hr. […] The immunoreactivities were detected using enhanced chemiluminescence reagents (GE Health care). […]
Background: Immunoblotting shows a protein as a band on a membrane.

The target of another data set is T2, purified BACE1 enzyme (Homo sapiens, UniProt P56817).
T2 construct: purchased Millipore
T2 sequence (P56817 46-501, species assumed): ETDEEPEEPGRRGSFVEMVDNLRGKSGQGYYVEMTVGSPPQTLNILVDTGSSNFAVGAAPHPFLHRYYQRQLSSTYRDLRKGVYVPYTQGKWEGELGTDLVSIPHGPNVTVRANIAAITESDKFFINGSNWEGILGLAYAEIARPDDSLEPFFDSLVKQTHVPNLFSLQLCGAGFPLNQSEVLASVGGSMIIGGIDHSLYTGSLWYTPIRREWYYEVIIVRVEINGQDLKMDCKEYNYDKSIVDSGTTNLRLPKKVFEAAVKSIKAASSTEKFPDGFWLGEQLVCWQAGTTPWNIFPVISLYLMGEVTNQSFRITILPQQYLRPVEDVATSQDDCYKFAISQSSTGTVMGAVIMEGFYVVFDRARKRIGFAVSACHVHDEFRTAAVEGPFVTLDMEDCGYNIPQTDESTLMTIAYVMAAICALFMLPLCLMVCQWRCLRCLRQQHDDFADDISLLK
Nature of the data set: Purified BACE1 enzyme activity. Type of data set: biochemical. The conditions noted are these: up to 100 μM. As for the experimental part: as §1

The subject of a further data set is SweAPP N2A cells. As to the kind of experiment: Cell viability of SweAPP N2A cells. The data set is classed as cell-based. The note with it: at concentrations that significantly inhibited Aβ production. On the procedure:
Cells were treated with timosaponins or other test compounds, and the conditioned medium was collected and subjected to measurement of secreted Aβ and N-terminal secreted APP (sAPPα and sAPPβ) by ELISA using specific antibodies pair targeting to respective fragments. Lysates from cells treated with timosaponins were subjected to immunoblot analysis using antibodies against c-terminal of APP to detect the full length APP, α-CTF and β-CTF. Cell viability and cytotoxicity are examined by MTT and LDH release assays, respectively. Cell culture: Neuro-2A cells expressing Swedish mutants of APP (N2A-APPswe) ENREF 12 was cultured in minimal essential medium with 2 mM glutamine, 2 mM pyruvate and 10% fetal bovine serum. Cells were seeded at 6-well plate at 1×10^6 cells/mL and grown for two days until confluence. The medium was replaced and the test compounds were added at indicated concentrations for 24 hr. Cell viability was measured by standard MTT assays.

The subject of data set [8] is SH-SY5Y neuronal cells transfected with mRFP-LC3. As to the kind of experiment: Colocalization of exogenous labeled Aβ1-42 with mRFP-LC3 autophagic compartments. The data set is classed as cell-based, Human. The note with it: 5 μM, 16 hours.
Data set [9] relates to NCI-H460, human non-small lung carcinoma cells. Nature of the data set: Growth of cancer cell lines: NCI-H460. Type of data set: cell-based. The note with it: mean ± S.D., n = 3; read-out: IC50 against growth of NCI-H460.
The test system of data set [10] is Notch cleavage by γ-secretase in N2A-APPswe cells. Nature of the data set: Notch cleavage by γ-secretase (NotchΔE/NICD immunoblot). Type of data set: cell-based. The note with it: FIG. 20; at concentrations that effectively lower Aβ levels, 18 hr. As for the experimental part: Immunoblot analysis: Cells were washed with phosphate buffered saline and lysed with buffer containing 50 mM Tris-Cl, pH 7.4, 150 mM NaCl, 1% Triton X-100 supplemented with protease inhibitors. Equal amount of proteins (30 μg) was resolved by 16.5% Tris-tricine gels and then transferred to nitrocellulose membrane with 0.2 µm pore size. For detection of secreted Aβ, sAPPα and sAPPβ, cells were treated with the timosaponins for 8 hr in complete medium which were then replaced with medium containing 0.1% FBS. After further incubation of 16 hr, 50 μL of the conditioned medium was mixed with SDS sample buffer and resolved accordingly. The membrane was blocked with Tris-buffered saline containing 0.1% TWEEN® 20 and 3% BSA and then incubated with primary antibodies at 4° C. overnight, followed with appropriate secondary antibodies for 2 hr. The primary antibodies were: APP c-terminal rabbit antibody (1:5000; Merck Bioscience) for detection of full length APP and APP-CTFs, mouse monoclonal 6E10 (Covance) for secreted Aβ and sAPPα, mouse monoclonal 6A1 (IBL) for sAPPβswe, ADAM-10 rabbit antibody (Millipore) and BACE1 rabbit antibody (Millipore). The immunoreactivities were detected using enhanced chemiluminescence reagents (GE Health care). […]

[11] abbreviates: FIG. 19, TAIII 5 μM, TAI 10 μM, SSG 25 μM, 18 hr, type III β-tubulin staining.
The mark [12] stands for this setting: Table 4, N2A-APPswe cells, mean ± S.D, n ≥ 3, read-out: IC50 in lowering Aβ42 production.

T1 sequence (P56818 46-501): as the sequence (P56817 46-501, species assumed) above, with P6S, V162I, L165I, S180T, V182A, I340V, L393A, Q443H counted along it
Method for Neuro-2A cells: Immunofluorescence examination of neurite outgrowth: Neuro-2A cells were seeded at 1×10^5 cells per glass bottom dish. After treatment, cells were fixed with 4% paraformaldyde for 10 min, permeabilized with 0.1% Trition X-100, and then blocked with 1% BSA in PBS. The cells were incubated with monoclonal antibody raised against type III β-tubulin (Sigma) for 1 hr followed by Alexa488 conjugated secondary antibody. Neurite morphology was examined under fluorescence microscope.

With `C[C@H]1CC[C@@]2(OC1)O[C@H]1C[C@H]3[C@@H]4CC[C@@H]5C[C@@H](O[C@@H]6O[C@H](CO)[C@H](O)[C@H](O)[C@H]6O[C@@H]6O[C@H](CO)[C@@H](O)[C@H](O)[C@H]6O)CC[C@]5(C)[C@H]4CC[C@]3(C)[C@H]1[C@@H]2C` [Timosaponin AIII], the “BACE activity in cell lysates” value in [1] was “no change”. In addition, the Neurite outgrowth entry in the data set on Neuro-2A cells (Example 8, 5 μM, 18 hours, N2A cells) was “significant extension and branching neuritis”; in the data set with Neuro-2A cells (setting [11]), “significant extension and branching of neurites”. Further, the IC50 was determined as 7.47 ± 2.39 µM in [2]; 12.2 ± 0.28 µM in [3]; 2 µM in data set [4] (Example 5, SweAPP N2A cells, 18 hours, ELISA, read-out: IC50, reduction of Aβ1-42 peptide secretion); 2.5 µM in data set [4] (Example 9, SweAPP N2A cells, Aβ1-42 ELISA, read-out: ICS50, inhibitor of Aβ production); 2.3 ± 0.2 µM in [4] (setting [12]); 7.28 ± 0.56 µM in data set [5]. In addition, the IC50 in data set [9] was 6.9 ± 0.31 µM. For the same compound, the “Aβ profile (Aβ42 vs Aβ40 and Aβ38)” value in data set [6] is “preferentially lower Aβ42 production”. Further, the “Aβ immunoreactivities in the conditioned medium” value in [7] is on record as “concomitant decrease”. Further, the “FL APP expression” value in [7] is “without significant changes”. In addition, the “Intracellular APP β-CTF expression” value in [7] is reported as “significantly decreased”. Further, the “Activity of purified BACE1 enzyme” value at purified BACE1 enzyme is listed as “not affected”. Further, the Cell viability entry with SweAPP N2A cells is recorded as “did not affect the cell viability”. Further, the “Colocalization of fluorophore labeled Aβ1-42 with mRFP-LC3 associated autophagic compartments” value in data set [8] is reported as “significantly colocalized”.
Take `C[C@H]1CC[C@@]2(OC1)O[C@H]1C[C@H]3[C@@H]4CC[C@@H]5C[C@@H](O)CC[C@]5(C)[C@H]4CC[C@]3(C)[C@H]1[C@@H]2C` [Sarsasapogenin]: in the data set with Neuro-2A cells (setting [11]), the Neurite outgrowth result was “significant extension and branching of neurites”. The IC50 in data set [2] is 50 ± 2 µM; in data set [3] it was 29.4 ± 5.09 µM; in data set [4] (Example 7, SweAPP N2A cells, Aβ1-42 ELISA, read-out: IC50, inhibition of Aβ production) it was ~20 µM; in data set [4] (setting [12]), 53 ± 9 µM; in data set [5] it was 32.6 ± 4.58 µM; in [9], 19.2 ± 0.45 µM. In addition, the “Notch processing (NotchΔE and NICD)” value in data set [10] is “did not affect the Notch processing”.
As for `C[C@H]1CC[C@@]2(OC1)O[C@H]1C[C@H]3[C@@H]4CC[C@@H]5C[C@@H](OCC(=O)O)CC[C@]5(C)[C@H]4CC[C@]3(C)[C@H]1[C@@H]2C` [Ethereal SSG], the IC50 in [4] (N2a-APPswe, read-out: IC50 in lowering Aβ42 production) amounted to 27 ± 8 µM. Moreover, the “Notch processing (NotchΔE and NICD)” value in data set [10] is “did not affect the Notch processing”.
